Among the data in patent US20240293558A1, “KRAS INHIBITOR CONJUGATES” (Erasca, Inc., priority 2021, published 2024) are IC50 and DC50 values, retold here.

One assay concerns the target T1, KRAS (WT) (Homo sapiens, UniProt P01116).
T1 construct: Biotinylated KRAS protein amino acids 1-169 (produced at Erasca); made in house
The assay is described as follows: In-vitro RAS-RAF binding assay (RRB), HTRF/FRET. Type of assay: biochemical. The settings on record: read-out: Inhibition of RAS-RAF Binding (in-vitro) KRAS (WT) IC50. The method, boiled down: (§1)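 Compounds preincubated with terbium-labelled biotinylated KRAS (aa 1-169, 30 nM) before 60 min SOS1-catalysed exchange to GTPgS. Binding of the d2-labelled cRAF RBD (30 nM) is read as FRET at equilibrium in duplicate. Buffer: 50 mM HEPES pH 7.5, 100 mM NaCl, 1 mM MgCl2, 1 mM DTT.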

Assay [1] deals with T2, KRas G12D fused to HiBiT peptide (Homo sapiens, UniProt P01116, G12D).
T2 construct: endogenous in cells; host or cells: AsPC-1 HiBiT knock-in single clone (Cas9 RNP + ssODN)
The assay is described as follows: ASPC-1 HiBit assay to determine G12D degradation. Type of assay: cell-based. Particulars: AsPC-1 HiBiT cells, 24-hour incubation; read-out: ASPC-1 HiBit DC50 (C). The method, boiled down:
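Homozygous AsPC-1 clone with N-terminal HiBiT knock-in on endogenous KRas G12D, 24 h compound exposure, top dose 10 μM, 3-fold, 10 points, 1% DMSO. Lytic HiBiT luminescence normalised to DMSO and inhibitor controls gives % degradation; DC50 from 4-parameter fit after hook-effect points removed.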

The target in the next assay is KRAS G12D (Homo sapiens, UniProt P01116, G12D). Description: In-vitro RAS-RAF binding assay (RRB), HTRF/FRET. Type of assay: biochemical. More on the design: Biotinylated KRAS protein amino acids 1-169 (produced at Erasca); made in house. Particulars: read-out: Inhibition of RAS-RAF Binding (in-vitro) KRAS (G12D) IC50. The method, boiled down: as §1
The mark [2] stands for this setting: Table 2, average of multiple runs of each compound.

Like-named read-outs stand apart in the source and are kept apart here.

KRAS G12D, sequence (P01116 1-169 isoform P01116-2 G12D): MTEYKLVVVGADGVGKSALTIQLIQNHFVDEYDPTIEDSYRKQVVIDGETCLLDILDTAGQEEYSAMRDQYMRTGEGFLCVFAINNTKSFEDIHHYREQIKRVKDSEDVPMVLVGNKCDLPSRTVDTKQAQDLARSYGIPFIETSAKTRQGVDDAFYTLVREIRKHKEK
T2 sequence (P01116 1-188 isoform P01116-2 G12D): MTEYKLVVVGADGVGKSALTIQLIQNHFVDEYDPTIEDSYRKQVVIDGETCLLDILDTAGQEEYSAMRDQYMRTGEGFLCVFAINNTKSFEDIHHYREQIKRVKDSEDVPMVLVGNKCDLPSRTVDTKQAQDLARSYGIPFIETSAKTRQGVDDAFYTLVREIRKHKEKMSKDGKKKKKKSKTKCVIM
T1 sequence (P01116 1-169 isoform P01116-2): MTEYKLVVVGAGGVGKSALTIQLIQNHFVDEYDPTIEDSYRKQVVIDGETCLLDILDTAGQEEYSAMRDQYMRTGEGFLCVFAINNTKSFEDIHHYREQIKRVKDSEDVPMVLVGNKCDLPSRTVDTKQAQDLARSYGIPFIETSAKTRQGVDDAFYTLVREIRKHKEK

As for `C[C@H](NC(=O)[C@@H]1C[C@@H](O)CN1C(=O)[C@@H](NC(=O)CCOCCCN1CCCC1COc1nc(N2CC3CCC(C2)N3)c2cc(Cl)c(-c3ccc(F)c4sc(N)c(C#N)c34)c(F)c2n1)C(C)(C)C)c1ccc(-c2c(F)cccc2F)cc1` (stereo partly drawn) [Example 19, (2S,4R)-1-((2S)-2-(3-(3-((2S)-2-((((7R)-7-(2-amino-3-cyano-7-fluorobenzo[b]thiophen-4-yl)-4-(3,8-diazabicyclo[3.2.1]octan-3-yl)-6-chloro-8-fluoroquinazolin-2-yl)oxy)methyl)pyrrolidin-1-yl)propoxy)propanamido)-3,3-dimethylbutanoyl)-N—((S)-1-(2′,6′-difluoro-[1,1′-biphenyl]-4-yl)ethyl)-4-hydroxypyrrolidine-2-carboxamide], the IC50 on KRAS (WT) (setting [2]) came out at 77.7 nM; on KRAS G12D (setting [2]), 7.67 nM. In addition, in assay [1], the DC50 came out at 63.2 nM.
The like results for `Cc1ncsc1-c1ccc([C@H](C)NC(=O)[C@@H]2C[C@@H](O)CN2C(=O)[C@@H](NC(=O)CCOCCCN2CCC[C@H]2COc2nc(N3CC4CCC(C3)N4)c3cc(C(F)(F)F)c(-c4ccc(F)c5sc(N)c(C#N)c45)c(F)c3n2)C(C)(C)C)cc1` [Example 91, (2S,4R)-1-((2S)-2-(3-(3-((2S)-2-((((7S)-7-(2-amino-3-cyano-7-fluorobenzo[b]thiophen-4-yl)-4-(3,8-diazabicyclo[3.2.1]octan-3-yl)-8-fluoro-6-(trifluoromethyl)quinazolin-2-yl)oxy)methyl)pyrrolidin-1-yl)propoxy)propanamido)-3,3-dimethylbutanoyl)-4-hydroxy-N—((S)-1-(4-(4-methylthiazol-5-yl)phenyl)ethyl)pyrrolidine-2-carboxamide] were, in that order, 23 nM, 8.2 nM and 23 nM.
With `C[C@H](NC(=O)[C@@H]1C[C@@H](O)CN1C(=O)[C@@H](NC(=O)CCOCCCN1CCCC1COc1nc(N2CC3CCC(C2)N3)c2cc(Cl)c(-c3ccc(F)c4sc(N)c(C#N)c34)c(F)c2n1)C(C)(C)C)c1ccc(-c2c(F)cccc2F)cc1` (stereo partly drawn) [Example 12, (2S,4R)-1-[(2S)-2-[3-[3-[2-[[7-(2-amino-3-cyano-7-fluoro-benzothiophen-4-yl)-6-chloro-4-(3,8-diazabicyclo[3.2.1]octan-3-yl)-8-fluoro-quinazolin-2-yl]oxymethyl]pyrrolidin-1-yl]propoxy]propanoylamino]-3,3-dimethyl-butanoyl]-N-[(1S)-1-[4-(2,6-difluorophenyl)phenyl]ethyl]-4-hydroxy-pyrrolidine-2-carboxamide], the IC50 on KRAS (WT) (Table 1) was 86.8 nM; on KRAS (WT) (setting [2]), 86.8 nM; at KRAS G12D (Table 1), 11.3 nM; at KRAS G12D (setting [2]), 11.2 nM. The DC50 in assay [1] worked out at 77.5 nM.
As for `CC(C)[C@@H](C(=O)N1C[C@H](O)C[C@H]1C(=O)N[C@@H](C)c1ccc(-c2c(F)cc(F)cc2F)cc1)c1cc(OCC2(C)CCN(CCOc3nc(N4CC5CCC(C4)N5)c4cc(C(F)(F)F)c(-c5ccc(F)c6sc(N)c(C#N)c56)c(F)c4n3)CC2)no1` [Example 76, (2S,4R)-1-((2R)-2-(3-((1-(2-((7-(2-amino-3-cyano-7-fluorobenzo[b]thiophen-4-yl)-4-(3,8-diazabicyclo[3.2.1]octan-3-yl)-8-fluoro-6-(trifluoromethyl)quinazolin-2-yl)oxy)ethyl)-4-methylpiperidin-4-yl)methoxy)isoxazol-5-yl)-3-methylbutanoyl)-4-hydroxy-N-((S)-1-(2′,4′,6′-trifluoro-[1,1′-biphenyl]-4-yl)ethyl)pyrrolidine-2-carboxamide], the results for the IC50 at KRAS (WT) (setting [2]) and at KRAS G12D (setting [2]) were 1900 nM and 21.9 nM, respectively. In assay [1], the DC50 amounted to 259 nM.
The like results for `CC(C)[C@@H](C(=O)N1C[C@H](O)C[C@H]1C(=O)N[C@@H](C)c1ccc(-c2c(F)cc(F)cc2F)cc1)c1cc(N2CC3(CCN(CCOc4nc(N5CC6CCC(C5)N6)c5cc(C(F)(F)F)c(-c6ccc(F)c7sc(N)c(C#N)c67)c(F)c5n4)CC3)C2)no1` [Example 75, (2S,4R)-1-((2R)-2-(3-(7-(2-((7-(2-amino-3-cyano-7-fluorobenzo[b]thiophen-4-yl)-4-(3,8-diazabicyclo[3.2.1]octan-3-yl)-8-fluoro-6-(trifluoromethyl)quinazolin-2-yl)oxy)ethyl)-2,7-diazaspiro[3.5]nonan-2-yl)isoxazol-5-yl)-3-methylbutanoyl)-4-hydroxy-N-((S)-1-(2′,4′,6′-trifluoro-[1,1′-biphenyl]-4-yl)ethyl)pyrrolidine-2-carboxamide] were, in that order, 836 nM, 23.9 nM and 843 nM.
The like results for `C#Cc1c(F)ccc2cc(O)cc(-c3ncc4c(N5CC6CCC(C5)N6)nc(OCCN5CCC(COc6cc(C(C(=O)N7C[C@H](O)C[C@H]7C(=O)N[C@@H](C)c7ccc(-c8scnc8C)cc7)C(C)C)on6)CC5)nc4c3F)c12` (stereo in doubt) [Example 35, (2S,4R)-1-((2R)-2-(3-((1-(2-((4-(3,8-diazabicyclo[3.2.1]octan-3-yl)-7-(8-ethynyl-7-fluoro-3-hydroxynaphthalen-1-yl)-8-fluoropyrido[4,3-d]pyrimidin-2-yl)oxy)ethyl)piperidin-4-yl)methoxy)isoxazol-5-yl)-3-methylbutanoyl)-4-hydroxy-N—((S)-1-(4-(4-methylthiazol-5-yl)phenyl)ethyl)pyrrolidine-2-carboxamide] were, in that order, 196 nM, 12.1 nM and 467 nM.
The like results for `CC(C)[C@@H](C(=O)N1C[C@H](O)C[C@H]1C(=O)N[C@@H](C)c1ccc(-c2c(F)cccc2F)cc1)c1cc(N2CC3(CCN(CCOc4nc(N5CC6CCC(C5)N6)c5cc(C(F)(F)F)c(-c6ccc(F)c7sc(N)c(C#N)c67)c(F)c5n4)CC3)C2)no1` [Example 77, (2S,4R)-1-((2R)-2-(3-(7-(2-((7-(2-amino-3-cyano-7-fluorobenzo[b]thiophen-4-yl)-4-(3,8-diazabicyclo[3.2.1]octan-3-yl)-8-fluoro-6-(trifluoromethyl)quinazolin-2-yl)oxy)ethyl)-2,7-diazaspiro[3.5]nonan-2-yl)isoxazol-5-yl)-3-methylbutanoyl)-N-((S)-1-(2′,6′-difluoro-[1,1′-biphenyl]-4-yl)ethyl)-4-hydroxypyrrolidine-2-carboxamide] were, in that order, 1100 nM, 17.6 nM and 330 nM.
Turning to `CC(C)[C@@H](C(=O)N1C[C@H](O)C[C@H]1C(=O)N[C@@H](C)c1ccc(-c2c(F)cccc2F)cc1)c1cc(OCC2(C)CCN(CCOc3nc(N4CC5CCC(C4)N5)c4cc(C(F)(F)F)c(-c5ccc(F)c6sc(N)c(C#N)c56)c(F)c4n3)CC2)no1` [Example 74, (2S,4R)-1-((2R)-2-(3-((1-(2-((7-(2-amino-3-cyano-7-fluorobenzo[b]thiophen-4-yl)-4-(3,8-diazabicyclo[3.2.1]octan-3-yl)-8-fluoro-6-(trifluoromethyl)quinazolin-2-yl)oxy)ethyl)-4-methylpiperidin-4-yl)methoxy)isoxazol-5-yl)-3-methylbutanoyl)-N-((S)-1-(2′,6′-difluoro-[1,1′-biphenyl]-4-yl)ethyl)-4-hydroxypyrrolidine-2-carboxamide], the IC50 turned out to be 962 nM on KRAS (WT) (setting [2]) and 18.1 nM on KRAS G12D (setting [2]). The 50% degradation concentration (DC50) in assay [1] came to 185 nM.
